Data as given in US7700584B2 (Hangzhou Minsheng Pharmaceuticals Co., Ltd., priority 2004, dated 2010).
Structures can show the parent of a compound that is named as a salt.

How the values were obtained:
[1] = test system: MCF-7 human mammary adenocarcinoma; assay: In vitro inhibition rate to tumor cells (MTT), MCF-7; format: cell-based; conditions: 50 μg/ml
Method: (§1) (1) Single cell suspension was seeded into 96-well plates (×3) (the cells was diluted in the PRMI-1640 minimum medium to 3×10^4 cells/ml, […] diluted cells/well). […] The experiments were performed in quadruplicate.
(§2) (2) The medium was removed. Solutions of the anti-tumor agents (15 compounds) were prepared in a freshly prepared medium at the concentrations indicated in the following Table. […] of the solution was added into each well. Incubation was continued for 48 hours.
(§3) (3) […] of 2 mg/ml MTT was added into each well, and incubated for 4 hours.
(§4) (4) The medium was removed from the well. The microplates were swiftly turned down to throw-off the medium. […] DMSO was added into each well, and vortexed at room temperature for 10 minutes.
(§5) (5) OD value (λ=570 nm) was measured with an Enzyme-Linked Detector.
(§6) (6) The inhibition rates (IR) of cell growth were respectively calculated based on the following equation: IR(%)=[1−(average OD of the experimental group/average OD of the control group)]×100%

[2] = test system: 293 cells; assay: Cell status of 293 cells treated with sample alone (herpes virus screening); conditions: 200 μg/ml, 24 hrs
[3] = test system: HL-60 human promyelocytic leukemia; assay: In vitro inhibition rate to tumor cells (MTT), HL-60; format: cell-based; conditions: 50 μg/ml
Method: as §1, §2, §3, §4, §5, §6

[4] = test system: Bel-7402 human hepatic carcinoma; assay: In vitro inhibition rate to tumor cells (MTT), Bel-7402; format: cell-based; conditions: 50 μg/ml
Method: as §1, §2, §3, §4, §5, §6

[5] = test system: LLC mouse Lewis lung carcinoma; assay: In vitro inhibition rate to tumor cells (MTT), LLC; format: cell-based; conditions: 50 μg/ml
Method: as §1, §2, §3, §4, §5, §6

[6] = test system: SMMC-7721 human hepatic carcinoma; assay: In vitro inhibition rate to tumor cells (MTT), SMMC-7721; format: cell-based; conditions: 50 μg/ml
Method: as §1, §2, §3, §4, §5, §6

[7] = test system: Hela human cervical carcinoma; assay: In vitro inhibition rate to tumor cells (MTT), Hela; format: cell-based; conditions: 50 μg/ml
Method: as §1, §2, §3, §4, §5, §6

[8] = test system: U-937 human histocytic lymphoma; assay: In vitro inhibition rate to tumor cells (MTT), U-937; format: cell-based; conditions: 50 μg/ml
Method: as §1, §2, §3, §4, §5, §6

[9] = test system: A-549 human lung adenocarcinoma; assay: In vitro inhibition rate to tumor cells (MTT), A-549; format: cell-based; conditions: 50 μg/ml
Method: as §1, §2, §3, §4, §5, §6

[10] = test system: HepG2 cells; assay: Cell status of HepG2 cells treated with sample (HBV screening); format: cell-based; conditions: 200 μg/ml, HepG2, four days after infection
Method: 1.5 Screening for the agents: The HepG2 cells were counted and 1.5×10^4 cells/well were seeded into a 96-well plate. After incubation overnight in an atmosphere of CO2 at 37° C., each of the experimental samples in a given concentration was added to the cells. After incubation at 37 °C for 24 hrs, the HepG2 treated with the samples were infected with vAcGFPHBVc of 100 MOI. A negative control and a positive control were also included. Four days after infection, the growth of the cells were observed, and the HBV e antigen in the supernatant was measured with the HBV e antigen diagnostic kit.

[11] = test system: Hepatitis B virus (HBV); format: cell-based
[12] = Table 2 (repeated screening), hydrochloride

Compound	inhibition rate, Results (%) MCF-7 ([1]; Table 1) [%]	inhibition rate, Results (%) MCF-7 ([1]; Table 2 (repeated screening)) [%]	Cytopathy and cell status, Sample [2]	inhibition rate, Results (%) HL-60 ([3]; Table 1) [%]	inhibition rate, Results (%) HL-60 ([3]; Table 2 (repeated screening)) [%]	inhibition rate, Results (%) Bel-7402 ([4]; Table 1) [%]	inhibition rate, Results (%) Bel-7402 ([4]; Table 2 (repeated screening)) [%]	inhibition rate, Results (%) LLC ([5]; Table 1) [%]	inhibition rate, Results (%) LLC ([5]; Table 2 (repeated screening)) [%]	inhibition rate, Results (%) SMMC-7721 ([6]; Table 1) [%]	inhibition rate, Results (%) SMMC-7721 ([6]; Table 2 (repeated screening)) [%]	inhibition rate, Results (%) Hela ([7]; Table 1) [%]	inhibition rate, Results (%) Hela ([7]; Table 2 (repeated screening)) [%]	inhibition rate, Results (%) U-937 ([8]; Table 1) [%]	inhibition rate, Results (%) U-937 ([8]; Table 2 (repeated screening)) [%]	inhibition rate, Results (%) A-549 ([9]; Table 1) [%]	inhibition rate, Results (%) A-549 ([9]; Table 2 (repeated screening)) [%]	further results
C=C1CC2(OC(=O)c3ccccc3)OC3(CC2C(C)C)C(C)CCC13 (stereo not drawn) [Compound 4, Curcumol benzoate]	49.23	50.09	Good	42.1	40.01	43.21	43.02	1.01	0.23	5.30	1.96	73.22	70.12	52.23	51.00	10.51	14.03	
CC(C)C1CC23OC1(O)C/C(=C\NC(C)(C)C)C2CCC3C (stereo not drawn) [Compound 16, Curcumol t-butyl amine hydrochloride]										−2.50								inhibition rate, Results (%) MCF-7 ([1]; Table 1, hydrochloride): 54.89%; inhibition rate, Results (%) MCF-7 [1, 12]: 50.32%; Cell status [10]: Normal; inhibition rate, Results (%) HL-60 ([3]; Table 1, hydrochloride): 2.31%; inhibition rate, Results (%) HL-60 [3, 12]: 15.00%; inhibition rate, Results (%) Bel-7402 ([4]; Table 1, hydrochloride): 1.23%; inhibition rate, Results (%) Bel-7402 [4, 12]: 8.99%; inhibition rate, Results (%) LLC ([5]; Table 1, hydrochloride): 1.13%; inhibition rate, Results (%) LLC [5, 12]: 0.22%; inhibition rate, Results (%) SMMC-7721 [6, 12]: 2.63%; inhibition rate, Results (%) Hela ([7]; Table 1, hydrochloride): 68.99%; inhibition rate, Results (%) Hela [7, 12]: 70.32%; inhibition rate, Results (%) U-937 ([8]; Table 1, hydrochloride): 82.56%; inhibition rate, Results (%) U-937 [8, 12]: 80.12%; (Value of the positive control - Measured Value) Value of the positive control × 100% ([11]; 200 μg/ml, decrease of HBeAg relative to positive control): 73.81%; OD450 of HBeAg ([11]; 200 μg/ml, supernatant four days after infection, positive control 1.917, negative 0.057): 0.502; activity against HBV (in words) ([11]; primary screening, HBV e antigen, HepG2, 13 samples): had the activity against HBV; inhibition rate, Results (%) A-549 ([9]; Table 1, hydrochloride): 6.01%; inhibition rate, Results (%) A-549 [9, 12]: 10.19%
CC(C)C1CC23OC1(O)CC(=CO[N+](=O)[O-])C2CCC3C (stereo not drawn) [Compound 19, Curcumol mononitrate]	12.6	0.16	Apoptotic	54.03	55.98	4.32	8.95	−15.52	−16.00	23.01	12.301	55.67	50.27	50.97	42.23	2.51	3.10	
